Like-named read-outs stand apart in the source and are kept apart here.
Tests used:
[1] = target: human placental alkaline phosphatase (hPAP) (Homo sapiens, UniProt P05187); assay: Alkaline phosphatase inhibition assay; assay type: biochemical
[2] = tested on: tissue nonspecific alkaline phosphatase (TNAP); settings: relative expression of control without drugs = 1.0

human placental alkaline phosphatase (hPAP), sequence (P05187 23-535): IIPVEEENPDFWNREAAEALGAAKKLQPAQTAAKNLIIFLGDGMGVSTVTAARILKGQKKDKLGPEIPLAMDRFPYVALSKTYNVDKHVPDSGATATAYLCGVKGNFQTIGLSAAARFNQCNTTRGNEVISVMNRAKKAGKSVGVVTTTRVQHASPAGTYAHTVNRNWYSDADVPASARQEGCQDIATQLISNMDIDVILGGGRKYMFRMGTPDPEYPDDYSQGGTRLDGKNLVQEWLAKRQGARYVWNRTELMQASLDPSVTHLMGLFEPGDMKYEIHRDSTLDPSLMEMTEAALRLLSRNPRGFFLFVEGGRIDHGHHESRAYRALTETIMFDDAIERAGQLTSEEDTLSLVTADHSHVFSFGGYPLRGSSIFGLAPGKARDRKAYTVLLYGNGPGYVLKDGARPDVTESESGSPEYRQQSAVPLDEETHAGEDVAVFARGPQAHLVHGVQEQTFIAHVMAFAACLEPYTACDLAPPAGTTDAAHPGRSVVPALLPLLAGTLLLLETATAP

SMILES	IC50 [1]	TNAP Down-regulation ([2]; MCF-7, 5 μM)	TNAP Down-regulation ([2]; MCF-7, 10 μM)
CC(C)(O)c1ccccc1CC[C@@H](SCC1(CC(=O)O)CC1)c1cccc(/C=C/c2ccc3ccc(Cl)cc3n2)c1 [Montelukast, (R,E)-2-(1-(((1-(3-(2-(7-chloroquinolin-2-yl)vinyl)phenyl)-3-(2-(2-hydroxypropan-2-yl)phenyl)propyl)thio)methyl)cyclopropyl) acetic acid]	17.5 ± 0.19 µM	0.27 fold	–
c1ccc([C@H]2CN3CCSC3=N2)cc1 [Levamisole]	–	–	0.26 fold

Reference: article PMC10828691 (Heliyon, 2024)
